Measurements reported in PMC9925730, “Controlled sequential in situ self-assembly and disassembly of a fluorogenic cisplatin prodrug for cancer theranostics” (Nature Communications, 2023).
“And” between values parts separate entries of the source, which are not always exact repeats. Equal values may be shown once.

Key:
ALP [1] = assay: Specificity of P-CyPt towards ALP (Trypsin, MMP-2, GGT, CTB, Caspase-3, ALP, ALP + Na3VO4); assay type: biochemical; details: for Normalized FL intensity at 710 nm, single replicate: individual replicates; for Normalized FL intensity at 710 nm, single replicate / Normalized FL intensity at 710 nm, mean: Supplementary Fig. 7b
ALP [2] = assay: Dephosphorylated efficacy of P-CyPt towards varying concentrations of ALP (NIR fluorescence); assay type: biochemical; details: for Normalized FL intensity: ALP 0 U/L; for normalized signal over time (section 'Supplementary Fig. 2c'), mean of 3: 250 μM
[3] = Blood analysis in healthy mice (blood count, biochemistry); assay type: in vivo; parameters: BUN / CRE / WBC / HGB / HCT / MCH / MCHC / MCV / RBC / ALT / AST / TP / T-Bil / Alb: unit not given here; details: for ALT / AST / Alb / BUN / CRE / HCT / MCH / MCHC / MCV / PLT / RBC / T-Bil / TP / WBC: Supplementary Fig. 36
s.c. HeLa tumors = assay: Fluorescence imaging of varying sizes of s.c. HeLa tumors; assay type: in vivo, mice; details: P-CyPt 100 μM, 200 μL i.v., 4 h
Protocol: page 21: Supplementary Figure 29. Fluorescence imaging of varying sizes of s.c. HeLa tumors in mice. (a) Representative fluorescence images of mice with s.c. HeLa tumors at a mean size of 3.8 ± 0.8, 22.1 ± 1.6, 46.4 ± 4.2, 75.9 ± 4.5 and 125.5 ± 12.7 mm3, respectively. […]) was i.v. injected into mice, and the whole-body fluorescence images were acquired at 0 and 4 h. Red arrows indicate the locations of tumors, and the black circle indicates the position chosen for the background in each mouse. (b) Calculated SBR in mice of different tumor sizes. […] Data denote mean ± s.d. (n = 3 independent animals). […] 21 (1 picture or pasted object on this page, not shown here)

ALP [4] = assay: Dephosphorylated efficacy of P-CyPt towards varying concentrations of ALP (NIR fluorescence); assay type: biochemical; details: 250 μM
[5] = test system: orthotopic HepG2/Luc liver tumors; assay: Chemotherapy of orthotopic liver tumors (BL imaging, ex vivo BL and FL imaging); assay type: in vivo, mice;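 also: bioluminescence quantified by ROI over liver region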
[6] = Body weight of mice with orthotopic HepG2/Luc liver tumors; assay type: in vivo; details: mean of 3, in g (unit assumed)

Q: What does the source list for `CC1(C)C(/C=C/C2=C3Oc4cc(OP(=O)(O)O)c(Cl)cc4C=C3CCC2)=[N+](CCCNC(=O)[C@@H](Cc2ccccc2)NC(=O)[C@@H](Cc2ccccc2)NC(=O)CCC(=O)[O][Pt]([NH2])([NH2])([OH])([Cl])[Cl])c2ccccc21` [P-CyPt]?
A: Normalized FL intensity at 710 nm, single replicate (ALP [1]; Enzyme type: ALP+Na3VO4): 1.0416 and 1.0656 and 1.1392; Normalized FL intensity at 710 nm, mean (ALP [1]; Enzyme type: ALP+Na3VO4, mean of 3 replicates): 1.082; Normalized FL intensity at 710 nm, single replicate (ALP [1]; Enzyme type: ALP+PBS): 1.0305 and 1.3734 and 1.3861; Normalized FL intensity at 710 nm, mean (ALP [1]; Enzyme type: ALP+PBS, mean of 3 replicates): 1.263; Normalized FL intensity at 710 nm, single replicate (ALP [1]; Enzyme type: ALP): 7.7619 and 9.0065 and 9.1858; Normalized FL intensity at 710 nm, mean (ALP [1]; Enzyme type: ALP, mean of 3 replicates): 8.651; Normalized FL intensity at 710 nm, single replicate (ALP [1]; Enzyme type: CTB): 0.9991 and 1.017 and 1.1059; Normalized FL intensity at 710 nm, mean (ALP [1]; Enzyme type: CTB, mean of 3 replicates): 1.041; Normalized FL intensity at 710 nm, single replicate (ALP [1]; Enzyme type: GGT): 0.8869 and 1.0719 and 1.0726; Normalized FL intensity at 710 nm, mean (ALP [1]; Enzyme type: GGT, mean of 3 replicates): 1.010; Normalized FL intensity at 710 nm, single replicate (ALP [1]; Enzyme type: MMP-2): 0.9603 and 0.9824 and 1.1444; Normalized FL intensity at 710 nm, mean (ALP [1]; Enzyme type: MMP-2, mean of 3 replicates): 1.029; Normalized FL intensity at 710 nm, single replicate (ALP [1]; Enzyme type: Tris (buffer only)): 0.9358 and 0.9007 and 1.1635; Normalized FL intensity at 710 nm, mean (ALP [1]; Enzyme type: Tris (buffer only), mean of 3 replicates): 1.000; Normalized FL intensity at 710 nm, single replicate (ALP [1]; Enzyme type: Trypsin): 0.935 and 0.9815 and 1.0282; Normalized FL intensity at 710 nm, mean (ALP [1]; Enzyme type: Trypsin, mean of 3 replicates): 0.982; NIR fluorescence signal of P-CyPt after incubation with enzyme (Supplementary Fig. 7, enzyme types), individual replicates (ALP [1]; enzyme: Casepase-3, individual replicate values (n=3)): 1.0789 and 1.0855 and 1.1465; NIR fluorescence signal of P-CyPt after incubation with enzyme (Supplementary Fig. 7, enzyme types), mean (ALP [1]; enzyme: Casepase-3, mean of 3 replicates): 1.104; Normalized FL intensity (ALP [2]; 0 min, mean of 3 samples): 1.022; Normalized FL intensity (ALP [2]; 0 min, single samples): 0.9783 and 1.039 and 1.048; Normalized FL intensity (ALP [2]; 2 min, mean of 3 samples): 1.026; Normalized FL intensity (ALP [2]; 2 min, single samples): 0.9783 and 1.057 and 1.043; Normalized FL intensity (ALP [2]; 4 min, mean of 3 samples): 1.02; Normalized FL intensity (ALP [2]; 4 min, single samples): 1.0087 and 1.035 and 1.017; Normalized FL intensity (ALP [2]; 6 min, mean of 3 samples): 1.039; Normalized FL intensity (ALP [2]; 6 min, single samples): 1.087 and 1.03 and 1; Normalized FL intensity (ALP [2]; 8 min, mean of 3 samples): 1.032; Normalized FL intensity (ALP [2]; 8 min, single samples): 1.087 and 1.013 and 0.9957; Normalized FL intensity (ALP [2]; 10 min, mean of 3 samples): 1.035; Normalized FL intensity (ALP [2]; 10 min, single samples): 1.083 and 1.017 and 1.004; Normalized FL intensity (ALP [2]; 12 min, mean of 3 samples): 1.029; Normalized FL intensity (ALP [2]; 12 min, single samples): 1.083 and 1.004 and 1; Normalized FL intensity (ALP [2]; 14 min, mean of 3 samples): 1.014; Normalized FL intensity (ALP [2]; 14 min, single samples): 1.065 and 0.9957 and 0.9826; Normalized FL intensity (ALP [2]; 16 min, mean of 3 samples): 1.013; Normalized FL intensity (ALP [2]; 16 min, single samples): 1.057 and 0.9957 and 0.987; Normalized FL intensity (ALP [2]; 18 min, mean of 3 samples): 1.0087; Normalized FL intensity (ALP [2]; 18 min, single samples): 1.048 and 1 and 0.9783; Normalized FL intensity (ALP [2]; 20 min, mean of 3 samples): 1.016; Normalized FL intensity (ALP [2]; 20 min, single samples): 1.039 and 0.9913 and 1.017; Normalized FL intensity (ALP [2]; 22 min, mean of 3 samples): 1.023; Normalized FL intensity (ALP [2]; 22 min, single samples): 1.104 and 0.9913 and 0.9739; Normalized FL intensity (ALP [2]; 24 min, mean of 3 samples): 1; Normalized FL intensity (ALP [2]; 24 min, single samples): 1.039 and 0.9957 and 0.9652; Normalized FL intensity (ALP [2]; 26 min, mean of 3 samples): 1.0029; Normalized FL intensity (ALP [2]; 26 min, single samples): 1.035 and 1.004 and 0.9696; Normalized FL intensity (ALP [2]; 28 min, mean of 3 samples): 1.014; Normalized FL intensity (ALP [2]; 28 min, single samples): 1.026 and 0.9913; Normalized FL intensity (ALP [2]; 30 min, mean of 3 samples): 1.00E+00; Normalized FL intensity (ALP [2]; 30 min, single samples): 1.04E+00 and 9.91E-01 and 0.9783; normalized signal over time (section 'Supplementary Fig. 2c'), mean of 3 (ALP [2]; time 200 min): 0.9941; normalized signal over time (section 'Supplementary Fig. 2c'), mean of 3 (ALP [2]; time 220 min): 0.9946; normalized signal over time (section 'Supplementary Fig. 2c'), mean of 3 (ALP [2]; time 240 min): 0.9956; normalized signal over time (section 'Supplementary Fig. 2c'), mean of 3 (ALP [2]; time 300 min): 0.9969; normalized signal over time (section 'Supplementary Fig. 2c'), mean of 3 (ALP [2]; time 340 min): 0.9978; normalized signal over time (section 'Supplementary Fig. 2c'), mean of 3 (ALP [2]; time 360 min): 0.9982; normalized signal over time (section 'Supplementary Fig. 2c'), mean of 3 (ALP [2]; time 380 min): 0.998; normalized signal over time (section 'Supplementary Fig. 2c'), mean of 3 (ALP [2]; time 400 min): 0.9983; normalized signal over time (section 'Supplementary Fig. 2c'), mean of 3 (ALP [2]; time 420 min): 0.9984; normalized signal over time (section 'Supplementary Fig. 2c'), mean of 3 (ALP [2]; time 460 min): 0.9985; normalized signal over time (section 'Supplementary Fig. 2c'), mean of 3 (ALP [2]; time 480 min): 0.9989; normalized signal over time (section 'Supplementary Fig. 2c'), mean of 3 (ALP [2]; time 500 min): 0.9986; normalized signal over time (section 'Supplementary Fig. 2c'), mean of 3 (ALP [2]; time 520 min): 0.9984; normalized signal over time (section 'Supplementary Fig. 2c'), mean of 3 (ALP [2]; time 540 min): 0.9984; normalized signal over time (section 'Supplementary Fig. 2c'), mean of 3 (ALP [2]; time 560 min): 0.9984; normalized signal over time (section 'Supplementary Fig. 2c'), mean of 3 (ALP [2]; time 580 min): 0.9984; normalized signal over time (section 'Supplementary Fig. 2c'), mean of 3 (ALP [2]; time 600 min): 0.9984; HGB ([3]; Supplementary Fig. 36, first HGB block, individual mice): 124 and 128 and 97; HGB ([3]; Supplementary Fig. 36, first HGB block, mean of 3 mice): 116.333; HGB ([3]; Supplementary Fig. 36, second HGB block (between AST and TP), mean of 3 mice): 3.426; ALT ([3]; individual mice): 64.638 and 69.471 and 57.14; AST ([3]; individual mice): 93.668 and 95.637 and 124.668; Alb ([3]; individual mice): 28.06 and 34.76 and 32.73; BUN ([3]; individual mice): 22.456 and 18.592 and 16.632; CRE ([3]; individual mice): 23.568 and 18.005 and 14.662; HCT ([3]; individual mice): 42 and 36 and 35.3; MCH ([3]; individual mice): 18.3 and 18.9 and 16.6; MCHC ([3]; individual mice): 315 and 345 and 304; MCV ([3]; individual mice): 50.3 and 49.6 and 53.5; PLT ([3]; individual mice): 463 and 494 and 673; RBC ([3]; individual mice): 7.22 and 7.49 and 6.74; T-Bil ([3]; individual mice): 20.416 and 17.788 and 25.91; TP ([3]; individual mice): 41.72 and 48.65 and 44.25; WBC ([3]; individual mice): 2.3 and 2.6 and 1.5; ALT ([3]; mean of 3 mice): 63.750; AST ([3]; mean of 3 mice): 104.658; Alb ([3]; mean of 3 mice): 31.850; BUN ([3]; mean of 3 mice): 19.227; CRE ([3]; mean of 3 mice): 18.745; HCT ([3]; mean of 3 mice): 37.767; MCH ([3]; mean of 3 mice): 17.933; MCHC ([3]; mean of 3 mice): 321.333; MCV ([3]; mean of 3 mice): 51.133; PLT ([3]; mean of 3 mice): 543.333; RBC ([3]; mean of 3 mice): 7.150; T-Bil ([3]; mean of 3 mice): 21.371; TP ([3]; mean of 3 mice): 44.873; WBC ([3]; mean of 3 mice): 2.133; blood count and biochemistry values ([3]; healthy nude mice, 1 day post i.v. 2.25 mg kg-1 Pt): all the values were within the normal reference; size of s.c. HeLa tumors still detected by NIR FL imaging (s.c. HeLa tumors): 3.8 ± 0.8 mm^3; normalized signal over time (section 'Supplementary Fig. 2c'), mean of 3 (ALP [4]; time 260 min): 0.996; normalized signal over time (section 'Supplementary Fig. 2c'), mean of 3 (ALP [4]; time 280 min): 0.9965; normalized signal over time (section 'Supplementary Fig. 2c'), mean of 3 (ALP [4]; time 320 min): 0.9972; normalized signal over time (section 'Supplementary Fig. 2c'), mean of 3 (ALP [4]; time 440 min): 0.9986; tumor BL intensity of liver ([5]; 2.25 mg kg^−1 Pt i.v. day 0, 3, 6, 9, 12, day 3): 2725.3; tumor BL intensity of liver ([5]; day 6): 3155.3; tumor BL intensity of liver ([5]; day 9): 3616.5; tumor BL intensity of liver ([5]; day 12): 6594.0; Body weight of mice (Supplementary Fig. 34) ([6]; time 0 d): 19.4; Body weight of mice (Supplementary Fig. 34) ([6]; time 3 d): 19.7033; Body weight of mice (Supplementary Fig. 34) ([6]; time 6 d): 19.4233; Body weight of mice (Supplementary Fig. 34) ([6]; time 9 d): 19.8233; Body weight of mice (Supplementary Fig. 34) ([6]; time 12 d): 20.0233; Body weight of mice (Supplementary Fig. 34) ([6]; time 15 d): 19.9233
